# Experimental data reported in US20230135127A1, “COMPOSITIONS AND METHODS FOR DISEASE TREATMENT AND PREVENTION BY PH MODIFIERS AND/OR CELL PROLIFERATION INHIBITORS” (priority 2021, published 2023).
# Counter-ions that a name gives are not always drawn. Like-named read-outs stand apart in the source and are kept apart here.
# Key:
# [1] = test system: mediastinal lymph node (MLN) cells; settings: for percentage of Lym2 lymphocytes in MLN: saline 2.26%; for percentage of Ki-67hi B cells in Lym1: saline 3.91%; for percentage of Lym1 lymphocytes in MLN: saline 73.7%; for percentage of Ki-67hi Lym1 B cells: saline 4.29%; for percentage of Ki-67hi Lym2 B cells: saline 35.2%; for CD8 T cells within Lym1: saline 13.9%
# Method: For the analyses of the effects of pH modifiers on lymphocyte populations and their proliferation in vivo in Example 3, the mice were sensitized, challenged with OVA and received either i.t. or i.p. treatments. The same challenge and treatment solutions as in the asthma model were used. In the first set of experiments, the mice were challenged with 60 μl of 1×OVA challenge solution without pH modifiers by i.t. injection for 2 consecutive days. One day of the second challenge, the mice received one-time i.t. treatment with saline or saline plus HCl or HOAc. The mice were sacrificed the next day by CO2 inhalation to collect lymphoid tissues. In the second set of experiments, the mice were challenged with OVA and treated with i.t. instillation of saline or saline plus HCl or HOAc or treated with i.p. injection of saline plus NaOH for a total of 3 doses as in the asthma model. On day 3 after the final challenge and treatment, mice were sacrificed by CO2 inhalation to collect lymphoid tissues.
# (§1) Cells were washed 3 times with PBS then stained with Zombie viability dyes at room temperature for 20 minutes. At the end of incubation, 10% volume of FBS was added to absorb excess Zombie dyes. After washes, the cells were stained with conjugated antibodies against surface antigens on ice. As specified in some experiments, the cells were subsequently stained with fluorochrome-conjugated Avidin. For Annexin V staining, cells were washed twice with plain PBS and once with Annexin V binging buffer (10 mM HEPES, pH7.4, 140 mM NaCl, 2.5 mM CaCl2)) after surface antigen staining, and incubated with fluorochrome-conjugated Annexin V in Annexin V binding buffer for 15 min at room temperature. The cells were washed twice in Annexin V binding buffer and resuspended in Annexin V binding buffer. 7-AAD was added to the cells before analyzed by flow cytometry. For Ki-67 and Foxp3 staining, lymphocytes (after Zombie dye and surface antigen staining) or tumor cells (without surface antigen staining) were fixed and permeabilized using Foxp3 staining buffer kit, then stained with PE-conjugated anti-mouse or human Ki-67 antibodies. (Biolegend, San Diego, Calif., USA). Stained and unstained cells were analyzed on Accuri C6 Flow Cytomer (Accuri Cytometers, Inc., Ann Arbor, Mich.), FACS Canto (BD Bioscience, San Jose, Calif., USA) and Attune™ cytometer (Invitrogen, Carlsbad, Calif.). Data analyses were carried out using FlowJo X.
# The DLNs are the primary location where active immune responses to local antigen exposure take place. The DLNs of the lungs are the mediastinal lymph nodes (MLNs). Two sets of experiments using the OVA sensitization and challenge models were carried out to investigate whether pH modifiers can affect lymphocyte populations and proliferation. In the first set of experiments, MLNs were collected from the mice 3 days after the first OVA challenge and 1 day after a single treatment. In the second set of experiments, MLNs were collected 7 days after the initial challenge and 3 days after the third treatments.
# [2] = test system: proliferating cells in the intestinal villi; test: Ki-67 immunohistochemistry of intestines; type: in vivo, mice; settings: i.p. x3, one day after third dose
# Method: (97). Briefly, the tissue sections were first deparaffinized and rehydrated.
# Mice were i.p. treated with saline or saline plus HCl, HOAc or NaOH every other day for a total of 3 doses. One day after the third dose, mice were sacrificed, and tissue sections of the intestines were analyzed by immunohistochemistry staining of Ki-67 with hematoxylin counter staining.
# [3] = test system: thymocytes; test: Asthma model: thymus and thymocyte populations in vivo; parameters: species or system mice; settings: for size of the thymus vs saline (gross examination): 3 days after final challenge and treatment; for percentage of Ki-67hi total thymocytes: saline 22.7%; for percentage of DP (CD4+CD8+) thymocyte subpopulation: saline 69.7%
# Method: as §1
# In the asthma model, OVA sensitized mice were challenged with OVA by i.t. injection every other day for 3 times. The mice received i.t. treatment with saline, HCl or HOAc at the same time as challenge, or i.p. treatment with NaOH 1 hour after the challenge. Thymuses were harvested 3 days after the final challenge and treatment. […] (FIG. 20a). […] The thymocytes can be divided into Ki-67 high, low and negative populations. (FIG. 20b).
# [4] = test system: primary thymocytes; test: In vitro treatment of thymocytes in FBS, Ki-67; type: cell-based, mouse; settings: FBS with saline plus modifier, vs saline cultures
# [5] = test system: C57BL/6 mice fed high fat diet; test: High fat diet obesity model; type: in vivo; settings: for average reduction of intestinal length vs saline: entire intestines; for intestines vs saline (gross examination): from end of stomach to anus; for sizes of fat pads vs saline: gross; for loss of body weight: i.p. every other day, four doses, 3 days after final treatments, saline about 3%; for fold reduction of fat/bodyweight ratio vs saline / average fat/bodyweight ratio: i.p. four doses; for average fat/bodyweight ratio: saline 0.135
# Method: The obesity model was similar to those previously described. (95, 96). Female C57BL/6 mice of 4 weeks age were acclimated at CRADL for 1 week. After the acclimation, mice were switched to Gamma-irradiated high fat diet (Research Diets, New Brunswick, N.J., USA) (60% calories from fat). After 4 weeks of high fat diet, the mice were switched back to regular diet, and treated with i.p. injection of saline or saline plus HCl or HOAc. The bodyweight of each mouse was recorded before each treatment, and at the end of the experiment.
# In the obesity model of Example 10, after fed with high fat diet for 4 weeks, mice were weighed to record total body weight. The mice were switched to regular diet and randomly divided into groups to receive i.p. treatments with saline or saline plus HCl, HOAc or NaOH. The mice continued to receive i.p. treatments on every other day for 3 additional doses. Four days after the final treatments, mice were sacrificed, their total body weights were measured, fat pads, and internal organs were collected, weighed, and analyzed.
# Obesity was induced in C57BL/6 mice by feeding young (5 weeks old) female mice with high fat diet for 4 weeks. The mice were then switched to normal diet and randomly divided into groups to receive i.p. treatments with saline or saline plus HCl, HOAc or NaOH every other day for a total of four doses. The mice were analyzed 3 days after the final treatments.
# [6] = test system: inflammatory infiltration in the lung tissues; test: Asthma model: H&E staining of lung tissue; settings: i.t. HOAc or HCl; i.p. NaOH
# [7] = test system: mucus secretion in the lungs; test: Asthma model: PAS staining of lung tissue; settings: i.t. HOAc or HCl; i.p. NaOH
# [8] = 1 day after single i.t. treatment
# [9] = 1 day after single i.t. treatment, saline 4.5×10^7
# [10] = 3 days after third treatment, saline 5.96×10^7
smiles,measurement,setting,value
"Cl [HCl, hydrochloric acid]",reduction of total MLN cells vs saline,[1]; [8],12%
same,average number of total MLN cells,[1]; [9],4.0×10^7
same,reduction of total MLN cells vs saline,[1]; 3 days after third treatment,5.5%
same,average number of total MLN cells,[1]; [10],5.6×10^7
same,percentage of Lym2 lymphocytes in MLN,[1]; first set,2.83%
same,percentage of Ki-67hi Lym1 cells,"[1]; first set, saline 3.31%",2.92%
same,percentage of Ki-67hi B cells in Lym1,[1]; first set,2.79%
same,CD8 T cells within Lym2,"[1]; first set, saline 9.69%",8.2%
same,CD4 T cells within Lym2,"[1]; first set, saline 14.2%",13.4%
same,B cells within Lym1,"[1]; first set, saline 42.5%",34.4%
same,percentage of Ki-67hi Lym2 cells,"[1]; first set, saline 54.5%",49.1%
same,B cells within Lym2,"[1]; first set, saline 62.6%",44.8%
same,percentage of Ki-67hi B cells in Lym2,"[1]; first set, saline 62.6%",51.1%
same,percentage of Lym1 lymphocytes in MLN,[1]; first set,68.3%
same,Ki-67 mean fluorescence intensities of Ki-67hi Lym2 and Lym2 B cells vs saline,[1]; second set,much lower
same,percentage of Ki-67hi Lym1 cells,"[1]; second set, saline 2.73%",2.42%
same,percentage of Ki-67hi Lym1 B cells,[1]; second set,3.62%
same,percentage of Ki-67hi Lym2 cells,"[1]; second set, saline 34.9%",34.9%
same,percentage of Ki-67hi Lym2 B cells,[1]; second set,35.5%
same,Ki-67+ cells in the intestinal villi (IHC),[2],more Ki-67^+ cells in the intestinal villi of saline- or NaOH-treated mice than the HCl- or HOAc-treated mice
same,Ki-67 staining intensity in intestines,[2],stronger than those of the HCl- or HOAc-treated mice
same,size of the thymus vs saline (gross examination),[3],dramatically smaller
same,Ki-67+ cells in thymocytes after in vitro treatment,[4],almost no Ki-67^+ cells
same,average reduction of intestinal length vs saline,[5],about 31%
same,intestines vs saline (gross examination),[5],drastically shortened
same,sizes of fat pads vs saline,[5],much smaller
same,loss of body weight,[5],about 25%
same,fold reduction of fat/bodyweight ratio vs saline,[5],5 fold
same,average fat/bodyweight ratio,[5],0.027
same,inflammatory infiltration in the lungs (H&E),[6],diminished
same,mucus secretion (PAS staining) in the lungs,[7],only faint PAS staining
"CC(=O)O [HOAc, acetic acid]",reduction of total MLN cells vs saline,[1]; [8],84%
same,average number of total MLN cells,[1]; [9],0.75×10^7
same,reduction of total MLN cells vs saline,[1]; 3 days after third treatment,29%
same,average number of total MLN cells,[1]; [10],4.23×10^7
same,percentage of Lym2 lymphocytes in MLN,[1]; first set,0.35%
same,percentage of Ki-67hi Lym1 cells,"[1]; first set, saline 3.31%",1.65%
same,percentage of Ki-67hi B cells in Lym1,[1]; first set,1.58%
same,CD8 T cells within Lym2,"[1]; first set, saline 9.69%",2.7%
same,CD8 T cells within Lym1,[1]; first set,1.75%
same,CD4 T cells within Lym2,"[1]; first set, saline 14.2%",3.23%
same,CD4 T cells within Lym1,"[1]; first set, saline 39.6%",8.17%
same,B cells within Lym1,"[1]; first set, saline 42.5%",22.2%
same,percentage of Ki-67hi Lym2 cells,"[1]; first set, saline 54.5%",27.2%
same,B cells within Lym2,"[1]; first set, saline 62.6%",46.9%
same,percentage of Ki-67hi B cells in Lym2,"[1]; first set, saline 62.6%",37.9%
same,percentage of Lym1 lymphocytes in MLN,[1]; first set,32.4%
same,percentage of Ki-67lo cells in Lym1,"[1]; first set, saline 80.4%",32.9%
same,Ki-67 mean fluorescence intensities of Ki-67hi Lym2 and Lym2 B cells vs saline,[1]; second set,much lower
same,increase of B cells within Lym1 vs saline,[1]; second set,60.4%
same,reduction of CD4 T cells within Lym1 vs saline,[1]; second set,19.3%
same,reduction of CD4 T cells within Lym2 vs saline,[1]; second set,88%
same,reduction of CD8 T cells within Lym1 vs saline,[1]; second set,46.8%
same,reduction of CD8 T cells within Lym2 vs saline,[1]; second set,91.7%
same,percentage of Ki-67hi Lym1 cells,"[1]; second set, saline 2.73%",2.67%
same,CD8 T cells within Lym2,"[1]; second set, saline 4.21%",0.35%
same,percentage of Ki-67hi Lym1 B cells,[1]; second set,2.38%
same,CD4 T cells within Lym2,"[1]; second set, saline 6.91%",0.8%
same,percentage of Lym2 in MLN,"[1]; second set, saline 8.10%",38.7%
same,CD8 T cells within Lym1,[1]; second set,7.39%
same,B cells within Lym1,"[1]; second set, saline 27.3%",43.8%
same,percentage of Ki-67hi Lym2 cells,"[1]; second set, saline 34.9%",25.3%
same,percentage of Ki-67hi Lym2 B cells,[1]; second set,24.9%
same,CD4 T cells within Lym1,"[1]; second set, saline 54.9%",44.3%
same,B cells within Lym2,"[1]; second set, saline 84%",93%
same,Ki-67+ cells in the intestinal villi (IHC),[2],more Ki-67^+ cells in the intestinal villi of saline- or NaOH-treated mice than the HCl- or HOAc-treated mice
same,Ki-67 staining intensity in intestines,[2],stronger than those of the HCl- or HOAc-treated mice
same,size of the thymus vs saline (gross examination),[3],dramatically smaller
same,decrease of total numbers of thymocytes vs saline,[3]; i.t. HOAc,~90%
same,percentage of Ki-67hi total thymocytes,[3],15.4%
same,percentage of DP (CD4+CD8+) thymocyte subpopulation,[3],43.8%
same,Ki-67+ cells in thymocytes after in vitro treatment,[4],almost no Ki-67^+ cells
same,average reduction of intestinal length vs saline,[5],~12%
same,intestines vs saline (gross examination),[5],drastically shortened
same,sizes of fat pads vs saline,[5],much smaller
same,loss of body weight,[5],~15%
same,fold reduction of fat/bodyweight ratio vs saline,[5],3 fold
same,average fat/bodyweight ratio,[5],0.045
same,inflammatory infiltration in the lungs (H&E),[6],diminished
same,mucus secretion (PAS staining) in the lungs,[7],only faint PAS staining
"[Na+].[OH-] [NaOH, sodium hydroxide]",increase of total MLN cells vs saline,[1]; 3 days after third i.p. treatment,32%
same,average number of total MLN cells,[1]; [10],7.9×10^7
same,Ki-67 mean fluorescence intensities of Ki-67hi Lym2 and Lym2 B cells vs saline,[1]; second set,higher
same,percentage of Ki-67hi Lym1 cells,"[1]; second set, saline 2.73%",3.48%
same,percentage of Ki-67hi Lym1 B cells,[1]; second set,4.23%
same,percentage of Ki-67hi Lym2 cells,"[1]; second set, saline 34.9%",42.2%
same,percentage of Ki-67hi Lym2 B cells,[1]; second set,44.7%
same,Ki-67+ cells in the intestinal villi (IHC),[2],more Ki-67^+ cells in the intestinal villi of saline- or NaOH-treated mice than the HCl- or HOAc-treated mice
same,Ki-67 staining intensity in intestines,[2],strongest
same,size of the thymus vs saline (gross examination),[3],similar
same,increase of total numbers of thymocytes vs saline,[3]; i.p. NaOH,about 28%
same,percentage of Ki-67hi total thymocytes,[3],31.7%
same,percentage of DP (CD4+CD8+) thymocyte subpopulation,[3],77.6%
same,Ki-67+ cells in thymocytes after in vitro treatment,[4],higher percentages of Ki-67^+ cells
same,average reduction of intestinal length vs saline,[5],about 2%
same,intestines vs saline (gross examination),[5],only slightly shortened
same,sizes of fat pads vs saline,[5],somewhat reduced
same,loss of body weight,[5],about 17%
same,average fat/bodyweight ratio,[5],0.106
same,inflammatory infiltration in the lungs (H&E),[6],"prominent in the perivascular areas, but not very noticeable in the peribronchial areas"
same,mucus secretion (PAS staining) in the lungs,[7],no reduction of mucus secretion or PAS staining
